Source: patent US7176276B2, “Antimicrobial peptide and use thereof” (Toagosei Co., Ltd., priority 2003, dated 2007)
Ends that are not written are not given here.

Experiments:
Type in all cases: cell-based
[1] = test system: Salmonella enteritidis IFO 3313; settings: IFO 3313, 24 h
Protocol: (§1) That is, each sample was diluted with a liquid bouillon medium (mfd. by DIFCO, product name “NUTRIENT BROTH Dehydrated”) to a peptide concentration of 500, 250, 125, 62.5, 31.3, 15.6, 7.8, 3.9, 1.9, 1.0 or 0.5 […] and dispensed in 150 μl portions into a 96 well microplate. On the other hand, a cell suspension (about 2×10^6 cells/ml) prepared by statically culturing each strain at 37° C. for 18 hours in LB Broth, Lennox (mfd. by DIFCO) was inoculated into each well of the 96 well microplate in an amount equivalent to that of the drug solution (the aforementioned peptide-containing bouillon medium). After the inoculation, the culturing was started in an incubator of 37° C., and the presence of bacterial growth was examined based on the turbidity after 24 hours. The minimum peptide concentration by which increase in the turbidity due to bacterial growth was not observed at the time of the measurement was defined as the MIC in this Example.

Bacillus cereus IFO 3001 = settings: IFO 3001, 24 h
Protocol: (§2) Gram-Positive Bacteria: • Staphylococcus aureus IFO 12732 • Staphylococcus aureus COL1 (MRSA) • Bacillus cereus IFO 3001 • Bacillus subtilis ATCC 6633 • Micrococcus luteus IFO 12708
as §1

[2] = test system: Staphylococcus aureus IFO 12732; settings: IFO 12732, 24 h
Protocol: as §2, §1

[3] = test system: Bacillus subtilis ATCC 6633; settings: ATCC 6633, 24 h
Protocol: as §2, §1

[4] = test system: Staphylococcus aureus COL1 (MRSA); settings: COL1, 24 h
Protocol: as §2, §1

[5] = test system: Micrococcus luteus IFO 12708; settings: IFO 12708, 24 h
Protocol: as §2, §1

[6] = test system: Klebsiella pneumoniae ATCC 4352; settings: ATCC 4352, 24 h
Protocol: (§3) Escherichia coli IFO 12713 • Escherichia coli 0157:H7 sakai • Klebsiella pneumoniae ATCC 4352 • Pseudomonas aeruginosa ATCC 10145
as §1

[7] = test system: Escherichia coli IFO 12713; settings: IFO 12713, 24 h
Protocol: as §3, §1

[8] = test system: Pseudomonas aeruginosa ATCC 10145; settings: ATCC 10145, 24 h
Protocol: as §3, §1

Substance	MIC [1]	MIC (Bacillus cereus IFO 3001)	MIC [2]	MIC [3]	MIC [4]	MIC [5]	MIC [6]	MIC [7]	MIC [8]
RRLLRKWWWKRLL-NH2 (C-terminus assumed) [Sample 2, RRLLRKWWWKRLL]	3.9 µg/mL	62.5 µg/mL	1.95 µg/mL	1.95 µg/mL	15.6 µg/mL	3.9 µg/mL	3.9 µg/mL	7.8 µg/mL	
RRRLLRKWWWKRLL-NH2 (C-terminus assumed) [Sample 3, RRRLLRKWWWKRLL]	3.9 µg/mL	62.5 µg/mL	1.95 µg/mL	1.95 µg/mL		7.8 µg/mL	3.9 µg/mL	15.6 µg/mL	15.6 µg/mL
LLRKWWWKRLL-NH2 (C-terminus assumed) [compound 1, LLRKWWWKRLL, reference compound]	15.6 µg/mL	62.5 µg/mL	1.95 µg/mL	0.98 µg/mL		7.8 µg/mL			
RLLRKWWWKRLL-NH2 (C-terminus assumed) [Sample 1, RLLRKWWWKRLL]	3.9 µg/mL	62.5 µg/mL	1.95 µg/mL	1.95 µg/mL		3.9 µg/mL	7.8 µg/mL	15.6 µg/mL	15.6 µg/mL
